From patent publication US7589213B2 (priority 2007, dated 2009) come the findings set out here.

Molecules are shown by their SMILES. Where only a bound is given, the exact number is not on record here.

In general, EC50 refers to the concentration that produces a half-maximal response. A higher EC50 goes with a need for much substance. Broadly, the Ki is the dissociation constant of the complex between target and ligand, obtained from inhibition or displacement.

One data set relates to normotensive dogs. Description: Intraocular pressure and ocular surface hyperemia in normotensive dogs. It is filed as in vivo, dog. The settings on record: once daily for 5 days. As to the method: U.S. Pat. No. 7,091,231 describes the methods used to carry out the tests reported below.
[…] The maximum intraocular pressure (IOP) decrease from baseline was 6.3 mmHg (39%) at 4 h; the maximum ocular surface hyperemia (OSH) score was 1.6 at 28 hours. This compound was also tested in laser-induced hypertensive monkeys, using one single day dose. At 0.01%, the maximum IOP decrease from baseline was 23 mmHg (61%) at 24 hours.

Data set [1] has as its target T1, EP2 (Homo sapiens, UniProt P43116). Description: EP2 flipr assay. The format is cell-based. The text has this:
(§1) U.S. patent application Ser. No. 11/553,143, filed on Oct. 26, 2006, incorporated by reference herein, describes the methods used to obtain the in vitro data in the table below.

For data set [2], the target named is T1, EP2. Description: EP2 cAMP assay. The format is cell-based.
Source text: as §1

Data set [3] addresses T1, EP2. Description: EP2 binding (Ki).
Source text: as §1

The target of data set [4] is T2, EP4 (Homo sapiens, UniProt P35408). Description: EP4 binding (KI).
T2 sequence (P35408 whole entry): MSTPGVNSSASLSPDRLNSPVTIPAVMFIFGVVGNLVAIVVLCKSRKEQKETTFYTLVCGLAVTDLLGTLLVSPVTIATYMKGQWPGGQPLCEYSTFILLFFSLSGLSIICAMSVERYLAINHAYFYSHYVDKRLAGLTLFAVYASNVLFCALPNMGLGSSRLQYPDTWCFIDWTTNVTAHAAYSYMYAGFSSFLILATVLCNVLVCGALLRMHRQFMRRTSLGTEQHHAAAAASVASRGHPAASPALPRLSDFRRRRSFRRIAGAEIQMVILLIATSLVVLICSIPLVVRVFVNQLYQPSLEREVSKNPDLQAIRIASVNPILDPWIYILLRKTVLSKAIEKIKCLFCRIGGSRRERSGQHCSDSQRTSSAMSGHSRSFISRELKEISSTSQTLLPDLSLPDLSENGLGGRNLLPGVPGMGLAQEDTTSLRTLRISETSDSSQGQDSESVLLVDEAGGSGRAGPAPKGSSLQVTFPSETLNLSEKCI
Source text: as §1

The next data set concerns the target T3, hEP3A (Homo sapiens, UniProt P43115).
T3 sequence (P43115 1-390): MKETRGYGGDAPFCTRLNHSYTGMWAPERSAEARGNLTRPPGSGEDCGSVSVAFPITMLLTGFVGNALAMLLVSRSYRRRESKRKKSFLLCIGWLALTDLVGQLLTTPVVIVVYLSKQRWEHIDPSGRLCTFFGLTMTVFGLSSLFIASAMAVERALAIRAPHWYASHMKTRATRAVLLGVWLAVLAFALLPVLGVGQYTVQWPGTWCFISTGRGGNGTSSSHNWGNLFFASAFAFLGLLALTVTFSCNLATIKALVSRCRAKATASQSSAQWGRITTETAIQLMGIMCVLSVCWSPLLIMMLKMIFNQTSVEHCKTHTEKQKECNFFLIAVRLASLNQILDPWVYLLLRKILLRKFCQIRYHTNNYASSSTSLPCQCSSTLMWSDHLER
Description: Other receptors functional EC50, hEP3A. The format is cell-based.
Source text: as §1

Data set [5] addresses T2, EP4. Description: EP4 flipr assay. It is filed as cell-based.
Source text: as §1

A further data set deals with T4, hEP1 (Homo sapiens, UniProt P34995).
T4 sequence (P34995 1-402): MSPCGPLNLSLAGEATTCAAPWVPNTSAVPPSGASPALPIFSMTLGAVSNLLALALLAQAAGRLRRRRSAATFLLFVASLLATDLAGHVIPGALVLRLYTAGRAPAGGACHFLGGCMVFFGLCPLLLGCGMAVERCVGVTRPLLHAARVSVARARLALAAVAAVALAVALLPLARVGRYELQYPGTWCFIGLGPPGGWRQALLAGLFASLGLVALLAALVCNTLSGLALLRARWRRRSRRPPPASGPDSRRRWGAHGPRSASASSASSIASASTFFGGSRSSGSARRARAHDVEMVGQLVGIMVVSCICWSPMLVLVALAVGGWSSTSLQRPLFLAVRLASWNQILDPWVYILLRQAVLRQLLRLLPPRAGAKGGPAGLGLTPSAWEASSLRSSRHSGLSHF
Description: Other receptors functional EC50, hEP1. The format is cell-based.
Source text: as §1

The target in a further data set is T5, hDP (Homo sapiens, UniProt Q13258).
T5 sequence (Q13258 1-359): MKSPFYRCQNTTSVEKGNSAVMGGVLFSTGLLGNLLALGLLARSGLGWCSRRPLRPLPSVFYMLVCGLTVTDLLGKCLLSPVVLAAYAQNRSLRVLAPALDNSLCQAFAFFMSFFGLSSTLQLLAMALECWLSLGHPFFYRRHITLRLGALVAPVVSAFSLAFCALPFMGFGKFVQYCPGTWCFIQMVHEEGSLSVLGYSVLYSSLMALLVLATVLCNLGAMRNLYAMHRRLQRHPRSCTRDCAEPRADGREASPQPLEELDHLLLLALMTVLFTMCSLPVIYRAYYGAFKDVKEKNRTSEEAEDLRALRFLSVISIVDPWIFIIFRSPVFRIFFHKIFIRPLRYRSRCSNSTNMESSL
Description: Other receptors functional EC50, hDP. It is filed as cell-based.
Source text: as §1

The target in another data set is T6, hTP (Homo sapiens, UniProt P21731).
T6 sequence (P21731 1-343): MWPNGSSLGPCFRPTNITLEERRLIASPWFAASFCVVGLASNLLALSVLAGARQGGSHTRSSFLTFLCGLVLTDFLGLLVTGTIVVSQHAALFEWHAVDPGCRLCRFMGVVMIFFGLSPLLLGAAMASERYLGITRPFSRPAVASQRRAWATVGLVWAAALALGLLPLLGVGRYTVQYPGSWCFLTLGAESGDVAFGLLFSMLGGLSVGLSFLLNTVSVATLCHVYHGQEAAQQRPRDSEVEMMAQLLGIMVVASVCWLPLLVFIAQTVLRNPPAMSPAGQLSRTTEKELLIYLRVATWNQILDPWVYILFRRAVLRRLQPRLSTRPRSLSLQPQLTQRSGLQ
Description: Other receptors functional EC50, hTP. The format is cell-based.
Source text: as §1

T1 sequence (P43116 whole entry): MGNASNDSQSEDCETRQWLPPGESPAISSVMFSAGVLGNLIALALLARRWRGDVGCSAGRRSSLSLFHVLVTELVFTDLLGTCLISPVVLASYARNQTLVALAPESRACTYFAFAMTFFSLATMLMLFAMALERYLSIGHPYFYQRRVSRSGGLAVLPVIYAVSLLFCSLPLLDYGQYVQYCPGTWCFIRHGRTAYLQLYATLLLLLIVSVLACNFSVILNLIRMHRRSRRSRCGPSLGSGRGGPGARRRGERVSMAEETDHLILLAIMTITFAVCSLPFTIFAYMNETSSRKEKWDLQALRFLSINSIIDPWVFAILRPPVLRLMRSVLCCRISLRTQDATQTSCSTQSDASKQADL

Take `CCCCCC(O)c1ccc(N2C(=O)CC[C@@H]2CCSc2nc(C(=O)OC(C)C)cs2)cc1` (stereo partly drawn) [compound 66, Isopropyl 2-(2-((2R)-1-(4-(1-hydroxyhexyl)phenyl)-5-oxopyrrolidin-2-yl)ethylthio)thiazole-4-carboxylate]: the “maximum ocular surface hyperemia (OSH) score” value with normotensive dogs (0.01%, maximum at 28 hours) is listed as 1.6.
Turning to `CCCCCC(F)c1ccc(N2C(=O)CC[C@@H]2COCc2csc(C(=O)O)c2)cc1` (stereo partly drawn) [compound 48, (R)-4-(((1-(4-(1-fluorohexyl)phenyl)-5-oxopyrrolidin-2-yl)methoxy)methyl)thiophene-2-carboxylic acid], the EC50 amounted to 5010 nM at EP2 [1], 40 nM on EP2 [2] and 3410 nM at hEP3A. The Ki is 1930 nM at EP2 [3] and above 10000 nM on EP4 [4].
With `CCCCCCC(O)c1ccc(N2C(=O)CC[C@@H]2CCSc2nc(C(=O)O)cs2)cc1` (stereo partly drawn) [compound 33, (R)-2-(2-(1-(4-(1-hydroxyheptyl)phenyl)-5-oxopyrrolidin-2-yl)ethylthio)thiazole-4-carboxylic acid], the EC50 at EP2 [1] is 3 nM; at EP2 [2], 0.4 nM; at EP4 [5] it was above 10000 nM; at hEP1, above 10000 nM; on hEP3A, 25 nM; at hDP it was 1560 nM. Also, the Ki on EP2 [3] was found to be 12 nM; at EP4 [4], 6360 nM.
Turning to `CCCCCC(O)c1ccc(N2C(=O)CC[C@@H]2CSc2nc(C(=O)O)cs2)cc1` (some centres unmarked) [compound 55], the EC50 on EP2 [1] came out at 284 nM; at EP2 [2], 120 nM; at hEP3A, 360 nM; on hTP, 3890 nM; on hDP it was 16000 nM. Moreover, the inhibition constant (Ki) was 355 nM on EP2 [3] and above 10000 nM on EP4 [4].
`CCCCCCC(=O)c1ccc(N2C(=O)CC[C@@H]2CCSc2nc(C(=O)O)cs2)cc1` [compound 38, (R)-2-(2-(1-(4-heptanoylphenyl)-5-oxopyrrolidin-2-yl)ethylthio)thiazole-4-carboxylic acid]: the EC50 was 45 nM on EP2 [1]; 0.7 nM on EP2 [2]; above 10000 nM at EP4 [5]; 43 nM at hEP3A; 594 nM at hDP. For the same compound, the inhibition constant (Ki) on EP2 [3] was determined as 18 nM; at EP4 [4], 3030 nM.
Turning to `CCCCCC(F)c1ccc(N2C(=O)CC[C@@H]2COCc2cc(C(=O)O)cs2)cc1` (stereo partly drawn) [compound 43, (R)-5-(((1-(4-(1-fluorohexyl)phenyl)-5-oxopyrrolidin-2-yl)methoxy)methyl)thiophene-3-carboxylic acid], the values for the EC50 at EP2 [1], on EP2 [2] and at hEP3A were 3850 nM, 7 nM and 1960 nM, respectively. Besides, the results for the Ki on EP2 [3] and at EP4 [4] were 256 nM and above 10000 nM, respectively.
Regarding `CCCCCCC(O)c1ccc(N2C(=O)CC[C@@H]2CCSc2nc(C(=O)O)cs2)cc1` (single isomer, unassigned) [compound 37], the 50% effective concentration (EC50) on EP2 [1] was 11 nM; at EP2 [2], 0.4 nM; on EP4 [5] it was 14600 nM; at hEP3A, 51 nM; at hDP it was 5320 nM. For the same compound, the Ki on EP2 [3] was 9 nM; at EP4 [4] it was 9150 nM.
For `CCCCCC(O)c1ccc(N2C(=O)CC[C@@H]2CCCc2nc(C(=O)O)cs2)cc1` (stereo partly drawn) [compound 63, (S)-2-(3-(1-(4-(1-hydroxyhexyl)phenyl)-5-oxopyrrolidin-2-yl)propyl)thiazole-4-carboxylic acid], the concentration for a half-maximal effect (EC50) at EP2 [1] is 37 nM; at EP2 [2] it was 0.8 nM; at hEP3A, 42 nM; on hDP it was above 10000 nM. This compound yielded a Ki at EP2 [3] of 115 nM.
As to `CCCCCC(O)c1ccc(N2C(=O)CC[C@@H]2CCSc2nc(C(=O)OC(C)C)cs2)cc1` (single isomer, unassigned) [compound 67], the “maximum ocular surface hyperemia (OSH) score” value in the data set with normotensive dogs (0.001%, maximum at 50 hours) is on record as 1.9; in the data set with normotensive dogs (0.01%, maximum at 26 hours), 2.0.
With `CCCCCC(O)c1ccc(N2C(=O)CC[C@@H]2CCSc2nc(C(=O)O)cs2)cc1` (single isomer, unassigned) [compound 18], the 50% effective concentration (EC50) turned out to be 7 nM at EP2 [1], 0.09 nM at EP2 [2], 46 nM at hEP3A and 7170 nM at hDP. This compound gave a Ki at EP2 [3] of 15 nM.
Take `CCCCCC(O)c1ccc(N2C(=O)CC[C@@H]2CCSc2nc(C(=O)OC(C)C)cs2)cc1` (single isomer, unassigned) [compound 68]: the “maximum ocular surface hyperemia (OSH) score” value in the data set on normotensive dogs (0.01%, maximum at 28 hours) is given as 2.0.
Take `CCCCCC(O)c1ccc(N2C(=O)CC[C@@H]2COCc2csc(C(=O)O)c2)cc1` (stereo partly drawn) [compound 47, (R)-4-(((1-(4-(1-hydroxyhexyl)phenyl)-5-oxopyrrolidin-2-yl)methoxy)methyl)thiophene-2-carboxylic acid]: the values for the half-maximal effective concentration (EC50) at EP2 [1], at EP2 [2] and at hEP3A were 2530 nM, 18 nM and 1340 nM, respectively. Also, the Ki is 784 nM at EP2 [3] and above 10000 nM on EP4 [4].
As to `CCCCCC(F)c1ccc(N2C(=O)CC[C@@H]2CSc2nc(C(=O)O)cs2)cc1` (some centres unmarked) [compound 54], the EC50 worked out at 212 nM on EP2 [1]; 117 nM on EP2 [2]; 503 nM at hEP3A; 14500 nM on hTP; 16400 nM at hDP. Further, the figures for the Ki on EP2 [3] and at EP4 [4] were 345 nM and above 10000 nM, respectively.
`CCCCCCC(O)c1ccc(N2C(=O)CC[C@@H]2CCSc2nc(C(=O)O)cs2)cc1` (single isomer, unassigned) [compound 36]: the EC50 on EP2 [1] was 57 nM; on EP2 [2] it was 1.2 nM; at hEP3A it was 11 nM; on hDP, 11900 nM. For the same compound, the Ki at EP2 [3] is 13 nM; on EP4 [4], above 10000 nM.
As to `CCCCCC(F)c1ccc(N2C(=O)CC[C@@H]2CCSc2nc(C(=O)O)cs2)cc1` (stereo partly drawn) [compound 19, (R)-2-(2-(1-(4-(1-fluorohexyl)phenyl)-5-oxopyrrolidin-2-yl)ethylthio)thiazole-4-carboxylic acid], the EC50 was 8 nM on EP2 [1]; 0.23 nM at EP2 [2]; above 10000 nM at hEP1; 90 nM at hEP3A; above 10000 nM at hDP. Moreover, the Ki was 9 nM on EP2 [3] and above 10000 nM on EP4 [4].
For the compound `CCCCCC(O)c1ccc(N2C(=O)CC[C@@H]2CCSc2nc(C(=O)O)cs2)cc1` (single isomer, unassigned) [compound 17], the half-maximal effective concentration (EC50) was 18 nM at EP2 [1]; 0.15 nM on EP2 [2]; above 10000 nM on hEP1; 35 nM on hEP3A; above 10000 nM at hDP. This compound also registered an inhibitory constant (Ki) at EP2 [3] of 15 nM.
As to `CCCCCC(O)c1ccc(N2C(=O)CC[C@@H]2COCc2cc(C(=O)O)cs2)cc1` (stereo partly drawn) [compound 42, (R)-5-(((1-(4-(1-hydroxyhexyl)phenyl)-5-oxopyrrolidin-2-yl)methoxy)methyl)thiophene-3-carboxylic acid], the EC50 is 2240 nM on EP2 [1], 5.5 nM on EP2 [2] and 1520 nM on hEP3A. Besides, the results for the inhibition constant (Ki) at EP2 [3] and on EP4 [4] were 448 nM and above 10000 nM, respectively.
